From the OPERA property sets (Mansouri et al. 2018) come the findings set out here.

In brackets after ≈: the same amount, converted by molar mass.

The logP is a log measure of how a compound divides between an organic and an aqueous phase. A higher logP goes with higher lipophilicity. The molecule `CC1=CC(=NNC(=N)N)C=CC1=NNC(N)=S` returned a logP of 1.66.
On the same count and under the same terms, the result for `CC(CCC(=O)O)C1CCC2C3C(O)C(O)C4CC(O)CCC4(C)C3CCC12C` (stereo unspecified) reads 2.8; that for `Cc1cccc2c1Cc1ccccc1-2`, 4.97.
On the same count and under the same terms, the result for `CC(=O)N[C@@H](Cc1ccc(O)cc1)C(=O)O` reads 1.32; that for `CC(=O)Nc1ccc2nc(S(N)(=O)=O)sc2c1`, 0.86.
The same measure, in the same setting: the result for `CN(C)c1ccc(N=C=S)cc1` reads 3.96.
As for `[O-][n+]1ccc(Cl)c2ccc(Cl)cc21`, the logP came out at 1.85.
The same measure, in the same setting: in the case of `Cc1ccc(C)c2c(C)cccc12` it was 4.9; in that of `Cc1cn([C@H]2C=C[C@@H](CO)O2)c(=O)[nH]c1=S`, 0.09; in that of `CN1CCN(c2c(F)cc3c(=O)c(C(=O)O)cn(CCF)c3c2F)CC1`, 0.24.
Same read-out and setting: in the case of `N#CC(C#N)=Cc1ccc(I)o1` it was 2.42; in that of `CCOC(C(=O)OCc1ccccc1)C(C)C` (stereo unspecified), 3.29.
Same read-out and setting: in the case of `CCCCOc1ccc([N+](=O)[O-])cc1NC(C)=O` it was 2.26; in that of `CC[N+](CC)(CC)CC.[Cl-]`, -3.15.
Turning to `O=C(CCCN1CCC(O)(c2ccc(Cl)cc2)CC1)c1ccc(F)cc1`, the logP stood at 4.3.
On the same count and under the same terms, in the case of `CC(C)N(C(=O)COc1nnc(C(F)(F)F)s1)c1ccc(F)cc1` it was 3.2.
On the same count and under the same terms, the result for `O=[N+]([O-])c1c(Cl)ncnc1Cl` reads 2.29; that for `CCCNC(=O)CCC(NS(=O)(=O)c1ccccc1)C(=O)O` (stereo unspecified), 0.01; that for `CC(N)CCc1ccccc1` (stereo unspecified), 2.12.
For the molecule `COCCOC(=O)C1=C(C)NC(C)=C(C(=O)OC(C)C)C1c1cccc([N+](=O)[O-])c1` (stereo unspecified), the logP came to 3.05.
On the same count and under the same terms, the result for `CNc1nc(C)nc(C(Cl)(Cl)Cl)n1` reads 2.43.
Take `CC(=O)N[C@@H](Cc1ccccc1)C(=O)O`: the logP worked out at 0.93.
The same measure, in the same setting: the result for `Clc1cc2c(Cl)ccc(Cl)c2cc1Cl` reads 5.81; that for `O=[N+]([O-])c1cc(Cl)c(Cl)c(Cl)c1Cl`, 3.93.
Same read-out and setting: in the case of `NC(=S)Nc1cccc2ccccc12` it was 1.65; in that of `Cc1nnc(-c2ccccc2)c(=O)n1N`, 0.83; in that of `O=C1CC2C(=O)NCC2CN1` (stereo unspecified), -2.11.
On the same count and under the same terms, in the case of `Cc1c(CNc2ccc(Cl)cc2)cnc2nc(N)nc(N)c12` it was 2.03; in that of `Cc1cc(Cl)ccc1OC(C)C(=O)O` (stereo unspecified), 3.13.
With `Cc1cc(=O)oc2cc(C3OC(C(=O)O)C(O)C(O)C3O)ccc12` (stereo unspecified), the log partition coefficient (logP) was -0.39.
`Clc1cc(Cl)c2[nH]c3c(Cl)cc(Cl)cc3c2c1` came in with a logP of 5.75.
Same read-out and setting: the result for `Clc1ccc2cccc(Cl)c2c1` reads 4.56.
The same measure, in the same setting: the result for `COc1ccc(C(OC(C)=O)C(Cl)(Cl)Cl)cc1` (stereo unspecified) reads 3.72; that for `CC(C)COCCO`, 0.75.
Still for that read-out and setting: in the case of `CCCCCCOCCO` it was 1.86; in that of `O=C(OCn1ncc2c(=O)[nH]cnc21)c1cccnc1`, 0.27.
Molecule `CCCNC(=O)CCC(NS(=O)(=O)c1ccc(C)cc1)C(=O)O` (stereo unspecified) gave a logP of 0.02.
Still for that read-out and setting: the result for `Fc1ccc(Cn2cncn2)cc1` reads 1.1; that for `COc1ccc(CNC(=O)C(=O)c2c[nH]c3ccc([N+](=O)[O-])cc23)cc1`, 2.17; that for `Cc1c(O)c(=O)ccn1CCO`, -1.1.
Usually solubility stands for how much of the substance goes into solution per volume. For the molecule `Cc1ccc(OP(=O)(Oc2ccc(C)cc2)Oc2ccc(C)cc2)cc1`, the solubility stood at 0.814 µM (≈ 0.3 µg/mL).
`N=C(N)NN=C(c1ccccc1)c1cccs1` gave a logP of 1.96.
Still for that read-out and setting: in the case of `Cc1ccc(Cl)cc1[N+](=O)[O-]` it was 3.05; in that of `CCCCN(C)C(=O)Nc1ccc(Cl)c(Cl)c1`, 4.1; in that of `COc1ccc(C=[N+]([O-])C(C)(C)C)cc1`, 1.21.
The same measure, in the same setting: in the case of `O=[N+]([O-])c1cccc2c1-c1cccc3c([N+](=O)[O-])ccc-2c13` it was 4.44; in that of `C[Si](C)(C)O[Si](C)(C)O[Si](C)(C)C`, 6.6.
As to `Oc1c(O)c(Cl)c(Cl)c(Cl)c1Cl`, the solubility stood at 10.9 µM (≈ 2.7 µg/mL).
For `CCCC(C)CCC(C)=O` (stereo unspecified), the logP came out at 2.92.
Same read-out and setting: in the case of `CCCCC(OC(Cc1ccccc1)C(=O)N1CCC(OCOC)CC1)C(=O)NC(CC1CCCCC1)C(O)CC(C(=O)NCCCNc1n[nH]c(N)n1)C(C)C` (stereo unspecified) it was 4.3; in that of `Cc1cccc([N+](=O)[O-])c1C`, 2.83.
Still for that read-out and setting: in the case of `Cc1cc(Cc2ccc(Cl)cc2Cl)c(Cl)cc1Cl` it was 7.43; in that of `COC1=CC(=O)C=C(OC)C1=O`, -0.06.
The same measure, in the same setting: in the case of `COC(=O)C1=C(C)NC(C)=C(C(=O)OCC(C)C)C1c1ccccc1[N+](=O)[O-]` (stereo unspecified) it was 3.26; in that of `CC(=O)Nc1cc(NS(=O)(=O)C(F)(F)F)c(C)cc1C`, 2.02; in that of `N#CC(C#N)=Cc1ccc(Cl)o1`, 2.17.
The molecule `CS(=O)CCCOc1ccc([N+](=O)[O-])cc1` (stereo unspecified) had a logP of 0.93.
Same read-out and setting: in the case of `NCCc1nccs1` it was 0.16; in that of `ClC1=CC2(Cl)C3CC(Cl)C(Cl)C3C1(Cl)C2(Cl)Cl` (stereo unspecified), 5.56.
Same read-out and setting: the result for `COc1ccc(C(=O)CCC(=O)O)cc1` reads 1.38; that for `COc1ncnc2c1ncn2C1OC(COC(=O)C(C)(C)C)C(O)C1OC(=O)C(C)(C)C` (stereo unspecified), 3.4.
